Values quoted from earlier work as cited in patent US12290506B2, “Compositions and formulations for use of a PK inhibitor for the prevention, treatment, and improvement of skin diseases, conditions, and disorders” (DermBiont, Inc., priority 2022, dated 2025).

Test system: UV induced neo-melanogenesis
Settings: topical application, guinea pig model

For bisindolylmaleimide, the UV induced neo-melanogenesis is given as “inhibit UV induced neo-melanogenesis”.
